Measured values: ChEMBL document CHEMBL1153288, “1,3,4-Oxadiazole substituted naphthyridines as HIV-1 integrase inhibitors. Part 2: SAR of the C5 position” (Bioorg Med Chem Lett, 2009)
pEC50, pIC50: −log10 of the molar value.

Assays:
[1] = Inhibition of recombinant HIV integrase strand transfer activity; set-up: species or system Human immunodeficiency virus
[2] = tested on: Human immunodeficiency virus; assay: Antiviral activity against G-pseudotyped HIV expressed in 293T cells with pGI3Luci; type: functional, organism-based; details: Human immunodeficiency virus 1, HEK-293T
[3] = Therapeutic index, CC50 for human 293T cells to EC50 for G-pseudotyped HIV; type: cell-based; details: read-out: Ratio CC50/EC50

Structure (SMILES) | pIC50 [1] | pEC50 [2] | selectivity ratio [3]
O=C1CN(c2nc(-c3nnc(Cc4ccc(F)cc4)o3)c(O)c3ncccc23)CCN1 | 8.15 | 7.77 | 844
CN(C)C(=O)C(=O)N(C)c1nc(-c2nnc(Cc3ccc(F)cc3)o2)c(O)c2ncccc12 | 7.07 | 6.51 | > 40
CC(C)NC(=O)c1nc(-c2nnc(Cc3ccc(F)cc3)o2)c(O)c2ncccc12 | 6.72 | 7.01 | 22
O=C(O)c1ccc(-c2nc(-c3nnc(Cc4ccc(F)cc4)o3)c(O)c3ncccc23)cc1 | 8.70 | 7.24 | 241
CC(C)NS(=O)(=O)c1ccccc1-c1nc(-c2nnc(Cc3ccc(F)cc3)o2)c(O)c2ncccc12 | 7.92 | 8.10 | 295
Oc1c(-c2nnc(Cc3ccc(F)cc3)o2)nc(-n2cccn2)c2cccnc12 | 8.40 | 7.80 | 546
O=S1(=O)CCCN1c1nc(-c2nnc(Cc3ccc(F)cc3)o2)c(O)c2ncccc12 | 8.10 | 6.96 | > 129
CC(=O)N(C)c1nc(-c2nnc(Cc3ccc(F)cc3)o2)c(O)c2ncccc12 | 7.55 | 6.74 | 428
Oc1c(-c2nnc(Cc3ccc(F)cc3)o2)nc(-c2cccnc2)c2cccnc12 | 7.96 | 7.44 | 194
CS(=O)(=O)c1ccc(-c2nc(-c3nnc(Cc4ccc(F)cc4)o3)c(O)c3ncccc23)cc1 | 8.05 | 8.10 | 301
CN(C)C(=O)CN1CCN(c2nc(-c3nnc(Cc4ccc(F)cc4)o3)c(O)c3ncccc23)CC1 | 7.92 | 7.37 | 205
NC(=O)c1ccc(-c2nc(-c3nnc(Cc4ccc(F)cc4)o3)c(O)c3ncccc23)cc1 | 8.22 | 8.00 | 1220
CC(=O)Nc1cccc(-c2nc(-c3nnc(Cc4ccc(F)cc4)o3)c(O)c3ncccc23)c1 | 7.10 | 8.00 | 1400
CS(=O)(=O)c1ccccc1-c1nc(-c2nnc(Cc3ccc(F)cc3)o2)c(O)c2ncccc12 | 7.96 | 7.64 | 243
O=C1CN(C(=O)c2nc(-c3nnc(Cc4ccc(F)cc4)o3)c(O)c3ncccc23)CCN1 | 7.13 | < 4.85 | 
CC(=O)Nc1ccc(-c2nc(-c3nnc(Cc4ccc(F)cc4)o3)c(O)c3ncccc23)cc1 | 8.40 | 8.22 | 591
CN1CCN(C(=O)c2nc(-c3nnc(Cc4ccc(F)cc4)o3)c(O)c3ncccc23)CC1 | 7.36 | 7.01 | > 144
O=C1CCCN1c1nc(-c2nnc(Cc3ccc(F)cc3)o2)c(O)c2ncccc12 | 7.72 | 7.05 | > 156
CC(C)NS(=O)(=O)c1ccc(-c2nc(-c3nnc(Cc4ccc(F)cc4)o3)c(O)c3ncccc23)cc1 | 8.40 | 7.82 | 118
Oc1c(-c2nnc(Cc3ccc(F)cc3)o2)nc(-c2ccc[nH]2)c2cccnc12 | 7.92 | 6.80 | 31
Cc1ccn(-c2nc(-c3nnc(Cc4ccc(F)cc4)o3)c(O)c3ncccc23)n1 | 7.68 | 6.42 | 23
O=C(O)c1cccc(-c2nc(-c3nnc(Cc4ccc(F)cc4)o3)c(O)c3ncccc23)c1 | 8.70 | 6.64 | > 60
O=C1NCCCN1c1nc(-c2nnc(Cc3ccc(F)cc3)o2)c(O)c2ncccc12 | 7.96 | 7.25 | > 250
N#Cc1nc(-c2nnc(Cc3ccc(F)cc3)o2)c(O)c2ncccc12 | 6.62 | < 4.46 | 
COCCNC(=O)c1nc(-c2nnc(Cc3ccc(F)cc3)o2)c(O)c2ncccc12 | 6.72 |  | 139
